Columns and labels:
Type in all cases: cell-based, human
[1] = test system: HeLa cells; experiment: Flow cytometry evaluation of mitochondrial membrane potential (JC-1 dye); conditions: 2 hours, 10 μM peptide or equivalent conjugate or polymer alone, versus no treatment
Protocol: (§1) HeLas, human cervical carcinoma cells (ATCC CCL-2), were maintained in minimum essential media (MEM) containing L-glutamine, 1% penicillin-streptomycin, and 10% FBS. Prior to experiments, HeLas were allowed to adhere overnight in 8-well chamber slides (20,000 cells/well) for microscopy or 96-well plates (10,000 cells/well) for other assays. Polymer-peptide conjugates and controls were added in MEM with 1% FBS.
Loss of mitochondrial membrane potential, a known indicator for apoptosis, was assessed using the JC-1 dye. […] HeLas were incubated for 2 hours with 10 μM peptide or equivalent conjugate or polymer alone. JC-1 was added at a final concentration of 5 μg/mL and incubated for 15 minutes. Cells were washed 2 times with PBS, trypsinized, and resuspended in 0.5% BSA for flow cytometric analysis. Percent of cells displaying mitochondrial depolarization was quantified based on the number of green fluorescent cells that were negative for red fluorescence. Here, a significant loss of red fluorescent JC-1 aggregates and therefore a loss in mitochondrial polarization was detected following treatment with both the Antp-BH3 peptide and the polymer peptide conjugate (FIG. 8A).

[2] = test system: HeLa cells; experiment: Lactate dehydrogenase (LDH) cytotoxicity assay; conditions: HeLa cervical cancer cells
Protocol: Bioconjugate efficacy for triggering tumor cell death was determined using a lactate dehydrogenase (LDH) cytotoxicity assay. At the end of each time point, cells were washed two times with PBS and then lysed with cell lysis buffer (100 μL/well, 20 mM Tris-HCl, pH 7.5, 150 mM NaCl, 1 mM Na2EDTA, 1 mM EGTA, 1% Triton, 2.5 mM sodium pyrophosphate, 1 mM β-glycerophosphate, 1 mM sodium orthovanadate) for 1 hour at 4° C. 20 μl of lysate from each sample was diluted into 80 μl PBS, and LDH was quantified by mixing with 100 μL of the LDH substrate solution. Following a 10 minute incubation, LDH was determined by measuring absorbance at 490 nm. Percent viability was expressed relative to samples receiving no treatment.

[3] = test system: HeLa cells; experiment: Fluorescent microscopic analysis of conjugate endosomal escape; conditions: Alexa-488 labeled peptide, 25 μM Antp-BH3, 15 minutes treatment
Protocol: as §1
An amine reactive Alexa-488 succinimidyl ester was mixed at a 1 to 1 molar ratio with the Antp-BH3 peptide in anhydrous dimethyl formamide (DMF). Unreacted fluorophore and organic solvent were removed using a PD 10 desalting column, and the fluorescently labeled peptide was lyophilized. Alexa-488 labeled Antp-BH3 was conjugated to the polymer as described above. Free peptide or polymer-peptide conjugate was applied to HeLas grown on chambered microscope slides at a concentration of 25 μM Antp-BH3. Cells were treated for 15 minutes, washed twice with PBS, and incubated in fresh media for an additional 30 minutes. The samples were washed again and fixed with 4% paraformaldehyde for 10 minutes at 37° C. Slides were mounted with ProLong Gold Antifade reagent containing DAPI and imaged using a fluorescent microscope.

[4] = test system: caspases 3 and 7; experiment: Caspase 3/7 activity assay; conditions: HeLa, 30 minutes, 25 μM peptide (alone or as conjugate) or equivalent polymer, relative to no treatment
Protocol: as §1
Caspase 3/7 activation was measured using a commercially available assay kit. This assay utilizes a profluorescent caspase 3/7 substrate that once enzymatically cleaved becomes fluorescent allowing for determination of relative enzyme activity using a fluorescent plate reader. Here, HeLas were incubated for 30 minutes with 25 μM peptide (alone or as polymer conjugate) in addition to polymer alone in a quantity equivalent to the conjugate samples. Afterwards, a caspase 3/7 fluorigenic indicator was added directly to the culture media for each sample. Plates were shaken for 1 hour and then assayed using a fluorescent plate reader. Data were expressed as percent caspase activity relative to samples receiving no treatment.

[5] = test system: erythrocytes; conditions: pH 5.8
Protocol: In order to assess the polymer's potential for endosomolytic activity, a membrane disruption assay was utilized to measure the capacity of the polymer to trigger pH-dependent disruption of lipid bilayer membranes as shown in FIG. 5. Whole human blood was drawn and centrifuged for plasma removal. The remaining erythrocytes were washed three times with 150 mM NaCl and resuspended into phosphate buffers corresponding to physiological (pH 7.4), early endosome (pH 6.6), and late endosome (pH 5.8) environments. The polymer (1-40 μg/mL) or 1% Triton X-100 was added to the erythrocyte suspensions and incubated for 1 hour at 37° C. Intact erythrocytes were pelleted via centrifugation, and the hemoglobin content within the supernatant was measured via absorbance at 541 nm. Percent hemolysis was determined relative to Triton X-100. Polymer hemolysis was quantified at concentrations ranging from 1-40 μg/mL relative to 1% v/v Triton X-100. This experiment was completed 2 times in triplicate, yielding similar results. The data shown represent a single experiment conducted in triplicate±standard deviation.

| Substance | increase in percent of cells exhibiting loss of mitochondrial polarity [1] | HeLa cell death / treatment effect (qualitative) [2] | peptide intracellular localization (fluorescence pattern) [3] | caspase 3/7 activation [4] | hemolysis [5] |
| --- | --- | --- | --- | --- | --- |
| NH2-RQIKIWFQNRRMKWKKMGQVGRQLAIIGDDINRRYDSC-COOH (H-RQIKIWFQNRRMKWKKMGQVGRQLAIIGDDINRRYDSC-OH) [Antp-BH3 peptide, cell internalizing form of the Bak-BH3 peptide fused to Antennapedia peptide, carboxy-terminal cysteine] | approximately 4 fold | negligible treatment effect | punctate staining | approximately 2.5 fold | – |
| Poly[HPMA]-b-[(PAA)(BMA)(DMAEMA)] [diblock copolymer] | – | – | – | – | significant increase in hemolysis |

From patent US9220791B2, “Bispecific intracellular delivery vehicles” (University of Washington, priority 2008, dated 2015)
